According to patent US20130196991A1, “SUBSTITUTED INDOLES, ANTIVIRAL ACTIVE COMPONENT, METHOD FOR PREPARATION AND USE THEREOF” (priority 2010, published 2013):
Structures can show the parent of a compound that is named as a salt.

Test system: JFH-1 HCV
Experiment: microbe, parasite or virus in culture
Format: cell-based, hepatitis C virus (HCV)
Settings: Hepatitis C virus, Huh-7, read-out: Inhibition of hepatitis C virus (IC50)
Description: Determination of antiviral activity of compounds of the general formula 1 towards hepatitis C viruses.
Determination of antiviral activity of compounds of the general formulas 1, 1.1, 1.2, 1.3, 1.3.1, 1.3.1.1 towards HCV was carried out on Huh7 cell culture. Immune in vitro (ELISA—enzyme-linked immunosorbent assay) test ELISA towards HCV virus cor-antigen was used. By means of this test inhibition effectiveness of antigen production (and, consequently, virus replication) by tested compounds in cells infected by JFH-1 virus was measured. Used in this experiment Huh7 cell culture having been infected with HCV virus is capable to support full range of viral replication.
Recombinant JFH-1 HCV virus used in the experiment was prepared by means of transfection of Huh7 cells by RNA JFH-1, prepared by transcription in vitro. JFH-1 DNA [Wakita, T. u ∂p. Production of Infectious Hepatitis C Virus in Tissue Culture from a Cloned Viral Genome. Nature Medicine 2005, 11:791-796.]) used as DNA matrix for transcription (NCBI, catalogue number AB047639, was synthesized chemically.
Huh7 cells were sowed in 96-well plates (3.0×10^3 cells in every well) Huh-7 medium (50 μl per every well). 9 solutions of every tested compound in Huh-7 medium in the range of concentrations of 0.09-200 μM were prepared. In 4 h after cell sowing the initial solution was removed by aspiration, after that 50 μl of tested compound solution and 50 μl of JFH-1 HCV were added to every well. As a result, the final concentrations of the tested compounds were in the range of 0.045-100 μM. If required the step of infection was carried out in 24 h after addition of tested compounds. After incubation for 16 h viral medium was removed by aspiration, and the tested compounds were added to the cultures in initial concentration to final value of 200 μl. The cells and tested compounds were incubated additionally for 4 days at 37° C. in the atmosphere of air containing 5% CO2. After the removal of nutrient solution the cells were fixed by addition of acetone/methanol (1:1) mixture in amount of 250 μl/well for 1 minute, washed three times with Phosphate Buffer (PBS buffer and then they were blocked by 10% FBS-PBS solution (150 μl/well)) for 1 h at room temperature. Each well was washed three times with PBS solution, incubated with mouse monoclonal antibodies to HCV cor-antigen (Affinity BioReagents, Catalogue: MA1-080), dissolved in FBS-PBS buffer (100 μl/well, prepared from the initial concentrate, diluted in the ratio 1:500 in 10% FBS-PBS), for 2 h at 37° C. Each well was washed three times with PBS solution, incubated with antibodies specific to mouse immunoglobulins, conjugated with horseradish peroxidase (HRP, 100 mkl/well of solution prepared from the initial concentrate, diluted in ratio 1:2500 in 10% FBS-PBS) for 1 h at 37° C. Each well was washed three times with PBS solution, then treated with OPD solution in amount of 100 μl/well (prepared by dilution of one OPD tablet in B 12 ml of citrate/phosphate buffer with addition of 5 μl of 30% H2O2) for 30 min in darkness at room temperature. The reaction was stopped by addition of 2N H2SO4 (100 μl/well), after that optical density at 490 nm was measured. IC50 value representing the concentration of the tested compound at which virus replication is lowered twice was calculated for every tested compound using Xlfit program according to the method described in [Wakita, T. u ∂p. (2005). Production of Infectious Hepatitis C Virus in Tissue Culture from a Cloned Viral Genome. Nature Medicine; 11:791-796.].

Compound | IC50 [nM]
Clc1ccc(Cn2c(CN3CCCC3)nc3ccccc32)cc1 [I Control, Clemizole, reference compound] | 9000
CCCN1CCN(C(=O)C2CCN(Cc3cc4ccccc4n3C)CC2)CC1 [1.3.1.1(14) * 2 HCl, 1-Methyl-2-({4-[(4-propylpiperazin-1-yl)carbonyl]piperidin-1-yl}methyl)-1H-indole dihydrochloride] | 2100
CN1CCN(C(=O)C2CCN(Cc3cc4ccccc4n3C)CC2)CC1 [1.3.1.1(15) * 2 HCl, 1-Methyl-2-({4-[(4-methylpiperazin-1-yl)carbonyl]piperidin-1-yl}methyl)-1H-indole] | 2400
CCCN1CCN(C(=O)C2CCN(Cc3cc4ccccc4n3Cc3ccc(Cl)cc3)CC2)CC1 [1.3.1.1(13), {1-[1-(4-chlorobenzyl)-1H-indol-2-ylmethyl]-piperidin-4-yl}-(4-propylpiperazin-1-yl)-methanone] | 300
CCCN1CCN(C(=O)C2CCCN(Cc3cc4ccccc4n3Cc3ccc(Cl)cc3)C2)CC1 (centres unmarked) [1.3.2.1(13) * 2 HCl, 1-(4-chlorobenzyl)-2-({3-[(4-propylpiperazin-1-yl)carbonyl]piperidin-1-yl}methyl)-1H-indole dihydrochloride] | 400
c1ccc(CN2CCCn3c4c(c5cc(C6CCCCC6)ccc53)CCCC42)cc1 (centres unmarked) [1.2(8)] | 1600
CC(C)c1ccc2c(c1)c1c3n2CCN(CC(N)=O)C3CCC1 (centres unmarked) [1.2(1), 2-(8-isopropyl-1,2,3a,4,5,6-hexahydro-3H-pyrazino[3,2,1-jk]carbazol-3-yl)-acetamide] | 1700

Same assay, conditions: Huh7 cell culture infected with recombinant JFH-1 HCV; ELISA of cor-antigen; concentration at which virus replication is lowered twice; read-out: Inhibition of hepatitis C virus (IC50)

Compound | IC50 [nM]
CCCN1CCN(C(=O)C2CCCN(Cc3cc4ccccc4n3C)C2)CC1 (centres unmarked) [1.3.2.1(14) * 2 HCl, 1-Methyl-2-({3-[(4-propylpiperazin-1-yl)carbonyl]piperidin-1-yl}methyl-1H-indoledihydrochloride] | 2100
